Source: patent publication US8586547B2, “CDC45L peptides and vaccines including the same” (Oncotherapy Science, Inc., priority 2009, dated 2013)
Where two headings read alike, the source gives them in different places. Where a SMILES comes first, the peptide text is derived from it.

Key:
[1] = system: C1R-A2402 cells pulsed with CDC45L derived peptides
Description: The DCs were pulsed with 20 micro-g/mL of the candidate peptides in the presence of 4 micro-g/mL beta 2-microglobulin (Sigma-Aldrich) for 2 h at 37 degrees C. in AIM-V (Invitrogen) supplemented with 2% heat-inactivated autologous plasma. The cells were then irradiated (40 Gy) and incubated with the isolated CD8^+ T cells as described previously (Imai K et al., Clin Cancer Res 2008; 14:6487-95, Harao M et al., Int J Cancer 2008; 123:2616-25). Two additional stimulations with peptide-loaded autologous PHA-blasts were performed on days 7 and 14. The PHA-blasts were generated as described previously (Inoue M et al., Immunol Lett 2009; 126:67-72), and these PHA-blasts (5×10^5) were pulsed with 20 micro-g/mL peptides for 3 h, irradiated (100 Gy) and cultured with the 2×10^6 CD8^+ T cells in the presence of 10 ng/mL human recombinant IL-7 (Wako, Osaka, Japan). After 2 days, the cultures were supplemented with 20 IU/mL human recombinant IL-2 (PeproTec, Inc.).
Six days after the last stimulation, the antigen-specific responses of the induced CTLs were investigated. Two additional weekly stimulations with peptide-loaded autologous PHA-blasts were carried out on day 7 and 14. Autologous CD 14^− CD8^− cells enriched with CD4^+ T cells were cultured with PHA (2 micro-g/mL) and human recombinant IL-2 (100 IU/mL) for 2 days, and cells were washed with PBS and cultured with human recombinant IL-2 (100 IU/mL) for additional three days. These PHA-blasts (5×10^5) were pulsed with 50 micro-g/mL peptides for 2 hours at 37 degrees C. in AIM-V (Invitrogen) supplemented with 2% heat-inactivated autologous plasma. The cells were then irradiated (100 Gy) and incubated with the 2×10^6 CD8^+ T cells. These cultures were set up in 24-well plates using the medium supplemented with 5 ng/mL human recombinant IL-7, IL-2, and IL-15. Six days after the last stimulation, the antigen-specific responses of the induced CTLs were investigated by an IFN-gamma ELISPOT assay, CD107a mobilization assay and ^51Cr release assay as described previously (Komori H et al. Clin Cancer Res 2006; 12: 2689-97) and below.
The frequency of cells producing interferon (IFN)-gamma per 1×10^5 CTLs upon stimulation with Lu99 cells (1×10^4/well) or peptide-pulsed C1R-A2402 and T2 cells (1×10^4/well) was analyzed by an ELISPOT assay (Human IFN-gamma ELISPOT kit, BD Biosciences) as previously described (Komori H et al., Clin Cancer Res 2006; 12:2689-97, Bourgault V I et al., Cancer Res 2004; 64:8761-6). The CTLs were co-cultured with cancer cells or peptide-pulsed C1R-A2402 and T2 cells as target cells (5×10^3/well) at the indicated effector-to-target ratio, and a standard ^51Cr-release assay was performed as described previously (Yokomine K et al., Int J Cancer 2009; 126:2153-63, Monji M et al., Clin Cancer Res 2004; 10:6047-57). The blocking of HLA-class I by anti-human HLA class I mAb, W6/32 (IgG2a, Santa Cruz Biotechnology), or HLA-class II by anti-human HLA-DR mAb (IgG2a, BD Biosciences), was performed as described previously (Komori H et al., Clin Cancer Res 2006; 12:2689-97, Makita M et al., Clin Cancer Res 2002; 8:2626-31).

[2] = Immunization of BALB/c mice with peptides emulsified in incomplete Freund adjuvant; type: in vivo; conditions: long-term observation period, unpublished data
[3] = system: A549 cells (CDC45L+, HLA-A24-); type: cell-based, human
Description: (§2) The CTLs were co-cultured with cancer cells or peptide-pulsed C1R-A2402 and T2 cells as target cells (5×10^3/well) at the indicated effector-to-target ratio, and a standard ^51Cr-release assay was performed as described previously (Yokomine K et al., Int J Cancer 2009; 126:2153-63, Monji M et al., Clin Cancer Res 2004; 10:6047-57). The blocking of HLA-class I by anti-human HLA class I mAb, W6/32 (IgG2a, Santa Cruz Biotechnology), or HLA-class II by anti-human HLA-DR mAb (IgG2a, BD Biosciences), was performed as described previously (Komori H et al., Clin Cancer Res 2006; 12:2689-97, Makita M et al., Clin Cancer Res 2002; 8:2626-31).

[4] = system: Lu99 cells (CDC45L+, HLA-A24+); experiment: 51Cr-release assay against Lu99 lung cancer cells; type: cell-based, human
Description: (§1) To knock down the expression of CDC45L in lung cancer cells, CDC45L small interfering (si) RNAs (human Cdc45 siRNA, sc-35044: a pool of three target-specific 20-25 nt siRNAs; Santa Cruz) were added at a final concentration of 150 nM to 40-60% confluent cells. Lipofectamine™ 2000 (Invitrogen) was used to transfect the siRNAs into cells, according to the manufacturer's instructions. GFP siRNAs were used as an irrelevant control. The treated cells were washed once with PBS, and adherent cells were collected at 72 h after transfection and used as target cells for the ^51Cr-release assay. To investigate the ability of siRNA to suppress CDC45L expression, western blot analysis was performed as described previously (Nakatsura T et al., Biochem Biophys Res Commun 2003; 306:16-25). Cancer cells were washed once with PBS at 48 h after transfection, and adherent cells were collected and lysed to analyze the expression levels of CDC45L for comparison with those of negative control cells. Beta-actin was used as the internal control. Rabbit polyclonal antibody reactive to CDC45L (sc-20685, Santa Cruz Biotechnology) was used as the primary antibody.

[5] = system: T2 cells pulsed with the peptide; conditions: CTL lines from HLA-A2 positive healthy donor; not against HIV-A2 peptide-loaded T2 cells
Description: PBMCs were isolated from HLA-A24 or HLA-A2 positive Japanese healthy donors and lung cancer patients, and the peripheral monocyte-derived dendritic cells (DCs) were generated as described previously (Harao M et al., Int J Cancer 2008; 123:2616-25, Naito K et al., Int J Oncol 2006; 28:1481-9). The DCs were pulsed with 20 micro-g/mL of the candidate peptides in the presence of 4 micro-g/mL beta 2-microglobulin (Sigma-Aldrich) for 2 h at 37 degrees C. in AIM-V (Invitrogen) supplemented with 2% heat-inactivated autologous plasma. The cells were then irradiated (40 Gy) and incubated with the isolated CD8^+ T cells as described previously (Imai K et al., Clin Cancer Res 2008; 14:6487-95, Harao M et al., Int J Cancer 2008; 123:2616-25). Two additional stimulations with peptide-loaded autologous PHA-blasts were performed on days 7 and 14. […]
The frequency of cells producing interferon (IFN)-gamma per 1×10^5 CTLs upon stimulation with Lu99 cells (1×10^4/well) or peptide-pulsed C1R-A2402 and T2 cells (1×10^4/well) was analyzed by an ELISPOT assay (Human IFN-gamma ELISPOT kit, BD Biosciences) as previously described (Komori H et al., Clin Cancer Res 2006; 12:2689-97, Bourgault V I et al., Cancer Res 2004; 64:8761-6). […]

[6] = system: Panc1 cells (CDC45L+, HLA-A2+, HLA-A24-); experiment: 51Cr-release assay against Panc1 cells; conditions: not inhibited by control anti-HLA-class II mAb
Description: as §2

[7] = system: EBC-1 cells (CDC45L+, HLA-A24+); type: cell-based, human
Description: as §1

SMILES	cytotoxic activity of CTL lines against peptide-pulsed C1R-A2402 cells [1]	pathological changes, such as lymphocyte infiltration or tissue destruction [2]	signs of autoimmune diseases, such as weight loss, diarrhea and skin abnormalities [2]	cytotoxicity of peptide-induced CTLs against EBC-1 cells [7]	also measured
CC[C@H](C)[C@H](NC(=O)[C@H](CCC(N)=O)NC(=O)[C@@H](NC(=O)[C@H](CC(=O)O)NC(=O)[C@H](CC(N)=O)NC(=O)[C@H](Cc1ccc(O)cc1)NC(=O)[C@@H](N)C(C)C)[C@@H](C)O)C(=O)N[C@@H](CCCCN)C(=O)N[C@@H](CC(C)C)C(=O)O [CDC45L-A24-9-109-2] (H-VYNDTQIKL-OH)	exhibited cytotoxic activity	did not exhibit pathological changes	no signs of autoimmune diseases		cytotoxicity of peptide-induced CTLs against A549 cells [3]: not against; cytotoxicity of peptide-induced CTLs against Lu99 cells [4]: exhibited cytotoxicity; cytotoxicity of peptide-induced CTLs against Lu99 cells transfected with CDC45L specific siRNAs [4]: not against
CC[C@H](C)[C@H](NC(=O)[C@H](CC(C)C)NC(=O)[C@H](C)NC(=O)[C@H](CC(=O)O)NC(=O)[C@H](CC(C)C)NC(=O)[C@H](Cc1ccccc1)NC(=O)[C@@H](N)CCCCN)C(=O)N[C@@H](CO)C(=O)N[C@@H](CC(C)C)C(=O)O [CDC45L-A24-9-556-4] (H-KFLDALISL-OH)	exhibited cytotoxic activity				cytotoxicity of CTL lines against C1R-A2402 cells loaded with the peptide [1]: not against; cytotoxicity of CTL lines against peptide-pulsed T2 cells [5]: exhibited cytotoxicity; cytotoxicity of peptide-induced CTLs against Lu99 cells transfected with CDC45L specific siRNAs ([4]; CDC45L-, HLA-A24+ target cells): not against; cytotoxicity of peptide-induced CTLs against Lu99 cells ([4]; Lu99 cells and Lu99 cells transfected with control GFP siRNAs): exhibited cytotoxicity; cytotoxicity against Panc1 cells in presence of blocking mAb against HLA-class I (W6/32) [6]: significantly inhibited
CC(C)C[C@H](NC(=O)[C@H](CCCCN)NC(=O)[C@H](Cc1ccccc1)NC(=O)[C@H](CCCNC(=N)N)NC(=O)[C@H](C)NC(=O)[C@H](C)NC(=O)[C@@H](NC(=O)[C@H](Cc1ccc(O)cc1)NC(=O)[C@@H](N)CO)[C@@H](C)O)C(=O)O [CDC45L-A24-9-294-3] (H-SYTAARFKL-OH)	exhibited cytotoxic activity	did not exhibit pathological changes	no signs of autoimmune diseases	exhibited cytotoxicity	
CC(C)C[C@H](NC(=O)[C@H](Cc1ccccc1)NC(=O)[C@@H](N)CCCCN)C(=O)N[C@@H](C)C(=O)N[C@@H](CO)C(=O)N[C@@H](CC(=O)O)C(=O)N[C@H](C(=O)N[C@H](C(=O)N[C@@H](Cc1ccccc1)C(=O)O)C(C)C)C(C)C [CDC45L-A24-9-370-7] (H-KFLASDVVF-OH)	exhibited cytotoxic activity			exhibited cytotoxicity	
CC[C@H](C)[C@H](NC(=O)[C@H](CC(C)C)NC(=O)[C@H](C)NC(=O)[C@H](CC(=O)O)NC(=O)[C@H](CC(C)C)NC(=O)[C@H](Cc1ccccc1)NC(=O)[C@@H](N)CCCCN)C(=O)N[C@@H](CO)C(=O)N[C@@H](CC(C)C)C(=O)N[C@@H](CC(C)C)C(=O)O [CDC45L-A24-10-556-12] (H-KFLDALISLL-OH)	exhibited cytotoxic activity				
